PubChem BioAssay (NCI)
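Dose response: 5 concentrations. Exposure: 48 h. Format: 96-well plates. Endpoint: linear interpolation; highest concentration if not reached. GI50 = concentration required for 50% inhibition of growth. TGI marks complete inhibition of growth.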

Tests used:
Assay in all cases: inhibition of tumour cell growth, NCI panel, 48 h
TK-10 renal = test system: TK-10 renal
MALME-3M melanoma = test system: MALME-3M melanoma
SF-539 CNS = test system: SF-539 CNS
SW-620 colon = test system: SW-620 colon
HOP-62 NSCLC = test system: HOP-62 NSCLC
SNB-19 CNS = test system: SNB-19 CNS
BT-549 breast = test system: BT-549 breast
SK-MEL-2 melanoma = test system: SK-MEL-2 melanoma
A549 NSCLC = test system: A549 NSCLC
UACC-257 melanoma = test system: UACC-257 melanoma
SK-OV-3 ovarian = test system: SK-OV-3 ovarian
SK-MEL-5 melanoma = test system: SK-MEL-5 melanoma
CAKI-1 renal = test system: CAKI-1 renal
NCI-H522 lung = test system: NCI-H522 lung
MDA-MB-231 breast = test system: MDA-MB-231 breast
RXF 393 renal = test system: RXF 393 renal
COLO 205 colon = test system: COLO 205 colon
PC-3 prostate = test system: PC-3 prostate
UACC-62 melanoma = test system: UACC-62 melanoma
M14 melanoma = test system: M14 melanoma
MOLT-4 leukemia = test system: MOLT-4 leukemia
ACHN renal = test system: ACHN renal
OVCAR-3 ovarian = test system: OVCAR-3 ovarian
NCI/ADR-RES ovarian = test system: NCI/ADR-RES ovarian
HCC-2998 colon = test system: HCC-2998 colon
HL-60(TB) leukemia = test system: HL-60(TB) leukemia
LOX IMVI melanoma = test system: LOX IMVI melanoma
SF-295 CNS = test system: SF-295 CNS
SK-MEL-28 melanoma = test system: SK-MEL-28 melanoma
KM12 colon = test system: KM12 colon
HCT-116 colon = test system: HCT-116 colon
U251 CNS = test system: U251 CNS
DU-145 prostate = test system: DU-145 prostate
SR leukemia = test system: SR leukemia
MDA-MB-435 = test system: MDA-MB-435
SN12C renal = test system: SN12C renal
UO-31 renal = test system: UO-31 renal
A498 renal = test system: A498 renal
HOP-92 NSCLC = test system: HOP-92 NSCLC
OVCAR-4 ovarian = test system: OVCAR-4 ovarian
OVCAR-5 ovarian = test system: OVCAR-5 ovarian
SNB-75 CNS = test system: SNB-75 CNS
NCI-H226 lung = test system: NCI-H226 lung
SF-268 CNS = test system: SF-268 CNS
T-47D breast = test system: T-47D breast
MDA-MB-468 breast = test system: MDA-MB-468 breast
K-562 leukemia = test system: K-562 leukemia
HCT-15 colon = test system: HCT-15 colon
NCI-H23 lung = test system: NCI-H23 lung
786-0 renal = test system: 786-0 renal
RPMI-8226 leukemia = test system: RPMI-8226 leukemia
HT29 colon = test system: HT29 colon
MCF7 breast = test system: MCF7 breast
HS 578T breast = test system: HS 578T breast
NCI-H460 lung = test system: NCI-H460 lung
EKVX NSCLC = test system: EKVX NSCLC
CCRF-CEM leukemia = test system: CCRF-CEM leukemia
OVCAR-8 ovarian = test system: OVCAR-8 ovarian
IGROV1 ovarian = test system: IGROV1 ovarian

CC(C)(C)c1ccc(NCc2cn(-c3ccc(C(=O)O)cc3)nc2-c2ccc(C#N)cc2)cc1
GI50 (TK-10 renal): 13.7 µM
TGI (TK-10 renal): 31 µM
GI50 (MALME-3M melanoma): 11.3 µM
TGI (MALME-3M melanoma): 28.3 µM
GI50 (SF-539 CNS): 5.96 µM
TGI (SF-539 CNS): 19.7 µM
GI50 (SW-620 colon): 7.65 µM
TGI (SW-620 colon): 25.1 µM
GI50 (HOP-62 NSCLC): 5.28 µM
TGI (HOP-62 NSCLC): 20.8 µM
GI50 (SNB-19 CNS): 4.44 µM
TGI (SNB-19 CNS): 16.8 µM
GI50 (BT-549 breast): 6.77 µM
TGI (BT-549 breast): 22.4 µM
GI50 (SK-MEL-2 melanoma): 4.37 µM
TGI (SK-MEL-2 melanoma): 18.3 µM
GI50 (A549 NSCLC): 3.77 µM
TGI (A549 NSCLC): 17.1 µM
GI50 (UACC-257 melanoma): 8.15 µM
TGI (UACC-257 melanoma): 42.8 µM
GI50 (SK-OV-3 ovarian): 16.1 µM
TGI (SK-OV-3 ovarian): 34.5 µM
GI50 (SK-MEL-5 melanoma): 3.58 µM
TGI (SK-MEL-5 melanoma): 13.5 µM
GI50 (CAKI-1 renal): 8.23 µM
TGI (CAKI-1 renal): 26.3 µM
GI50 (NCI-H522 lung): 10.1 µM
TGI (NCI-H522 lung): 27.8 µM
GI50 (MDA-MB-231 breast): 12.2 µM
TGI (MDA-MB-231 breast): 27.5 µM
GI50 (RXF 393 renal): 6.94 µM
TGI (RXF 393 renal): 21.4 µM
GI50 (COLO 205 colon): 3.18 µM
TGI (COLO 205 colon): 11.8 µM
GI50 (PC-3 prostate): 5.74 µM
TGI (PC-3 prostate): 31.1 µM
GI50 (UACC-62 melanoma): 5.48 µM
TGI (UACC-62 melanoma): 19 µM
GI50 (M14 melanoma): 7.28 µM
TGI (M14 melanoma): 25.9 µM
GI50 (MOLT-4 leukemia): 4.34 µM
TGI (MOLT-4 leukemia): > 100 µM
GI50 (ACHN renal): 6.12 µM
TGI (ACHN renal): 60.1 µM
GI50 (OVCAR-3 ovarian): 6.86 µM
TGI (OVCAR-3 ovarian): 21.9 µM
GI50 (NCI/ADR-RES ovarian): 5.81 µM
TGI (NCI/ADR-RES ovarian): 23.4 µM
GI50 (HCC-2998 colon): 3.31 µM
TGI (HCC-2998 colon): 11.7 µM
GI50 (HL-60(TB) leukemia): 2.83 µM
TGI (HL-60(TB) leukemia): 14.1 µM
GI50 (LOX IMVI melanoma): 7.3 µM
TGI (LOX IMVI melanoma): 20.3 µM
GI50 (SF-295 CNS): 5.35 µM
TGI (SF-295 CNS): 20.7 µM
GI50 (SK-MEL-28 melanoma): 4.3 µM
TGI (SK-MEL-28 melanoma): 17.8 µM
GI50 (KM12 colon): 3.45 µM
TGI (KM12 colon): 13 µM
GI50 (HCT-116 colon): 4.45 µM
TGI (HCT-116 colon): 17.3 µM
GI50 (U251 CNS): 4.64 µM
TGI (U251 CNS): 17.5 µM
GI50 (DU-145 prostate): 12.4 µM
TGI (DU-145 prostate): 38.2 µM
GI50 (SR leukemia): 3.03 µM
TGI (SR leukemia): 20.8 µM
GI50 (MDA-MB-435): 6.31 µM
TGI (MDA-MB-435): 32.7 µM
GI50 (SN12C renal): 7.81 µM
TGI (SN12C renal): 20.4 µM
GI50 (UO-31 renal): 6.5 µM
TGI (UO-31 renal): 21.1 µM
GI50 (A498 renal): 11.1 µM
TGI (A498 renal): 23.4 µM
GI50 (HOP-92 NSCLC): 8.12 µM
TGI (HOP-92 NSCLC): 23.3 µM
GI50 (OVCAR-4 ovarian): 6.23 µM
TGI (OVCAR-4 ovarian): > 100 µM
GI50 (OVCAR-5 ovarian): 14.2 µM
TGI (OVCAR-5 ovarian): 28.7 µM
GI50 (SNB-75 CNS): 6.97 µM
TGI (SNB-75 CNS): 21.3 µM
GI50 (NCI-H226 lung): 10.8 µM
TGI (NCI-H226 lung): 35.6 µM
GI50 (SF-268 CNS): 7.21 µM
TGI (SF-268 CNS): 26 µM
GI50 (T-47D breast): 4.57 µM
TGI (T-47D breast): > 100 µM
GI50 (MDA-MB-468 breast): 10.1 µM
TGI (MDA-MB-468 breast): 34.3 µM
GI50 (K-562 leukemia): 3.48 µM
TGI (K-562 leukemia): 76.9 µM
GI50 (HCT-15 colon): 3.36 µM
TGI (HCT-15 colon): 12.6 µM
GI50 (NCI-H23 lung): 11.8 µM
TGI (NCI-H23 lung): 27.4 µM
GI50 (786-0 renal): 12.9 µM
TGI (786-0 renal): 27.6 µM
GI50 (RPMI-8226 leukemia): 3.91 µM
TGI (RPMI-8226 leukemia): 25.2 µM
GI50 (HT29 colon): 5.75 µM
TGI (HT29 colon): 21.4 µM
GI50 (MCF7 breast): 3.43 µM
TGI (MCF7 breast): 21.6 µM
GI50 (HS 578T breast): 3.54 µM
TGI (HS 578T breast): 27.2 µM
GI50 (NCI-H460 lung): 4.41 µM
TGI (NCI-H460 lung): 17 µM
GI50 (EKVX NSCLC): 3.07 µM
TGI (EKVX NSCLC): 12.5 µM
GI50 (CCRF-CEM leukemia): 3.73 µM
TGI (CCRF-CEM leukemia): 36.8 µM
GI50 (OVCAR-8 ovarian): 4.66 µM
TGI (OVCAR-8 ovarian): 17.4 µM
GI50 (IGROV1 ovarian): 10.7 µM
TGI (IGROV1 ovarian): 25.6 µM
